Measured values: publication PMC10656490, “Sequence-based prediction of the intrinsic solubility of peptides containing non-natural amino acids” (Nature Communications, 2023)
Where two headings read alike, the source gives them in different places. Where a SMILES comes first, the peptide text is derived from it. [ ]: non-standard residue; d: D form. Cha = N[C@@H](CC1CCCCC1)C(=O)O; Cit = NC(=O)NCCC[C@H](N)C(=O)O; Nle = CCCC[C@H](N)C(=O)O; Aib = CC(C)(N)C(=O)O

Key:
[1] = Ammonium sulphate (AMS) precipitation relative solubility assay (18 A variants); assay type: physicochemical; settings: for solubility of 18 A variants (in words): pH 7
Method: (§1) Relative solubility was measured using a recently developed PEG precipitation assay. For all PYY variants the standard assay worked well, and no changes had to be implemented (Fig. 2a). […] Moreover, to ensure that the results stemming from the AMS assay are consistent and reliable, we performed the 18 A experiments twice independently on different days. The results confirmed that they are indeed replicable, and we were therefore confident to use them for the validation of our approach (Supplementary Fig. 3). […] Even at final concentrations of 0.33 mg/mL (instead of 1 mg/mL) most variants remained insoluble. We used ultracentrifugation to determine the relative solubilities of the GLP-1 variants (Table 3). To confirm the reliability of this method we replicated the results on a different day with the same stock solutions (Supplementary Fig. 4).
(§2) Aliquots of 1 mg were prepared from the purified and lyophilised stocks. […] Briefly, a precipitant is titrated in increasing concentration to a fixed concentration of protein to induce precipitation of the protein. The samples are incubated for 48 h at 4° after mixing. The samples are centrifuged and the remaining protein concentration is measured in the supernatant using a plate reader. PYY and 18 A variants were dissolved in 10 mM citrate 10 mM phosphate buffer at pH 7 for a final concentration of 3 mg/mL. The assay was run with 50% 6000 PEG for PYY and with 3.8 M AMS for 18 A. To improve throughput, a multichannel robot was employed to measure several peptides at once with the workflow being kept the same as described previously. […] 120 µL of each sample were centrifuged using an OptimaTLX Ultracentrifuge and spinning for 30 min at 500,000 g at 4 °C. The supernatant was removed, and the peptide concentration was measured using a NanoDrop.

[2] = Solubility by ultracentrifugation (GLP-1 variants); assay type: physicochemical; settings: for solubility: 10 mM citrate 10 mM phosphate buffer, pH 7, GLP-1 variants, 2 mg/mL in 10 mM citrate 10 mM phosphate pH 7, 30 min 500,000 g 4 °C
Method: as §1, §2

[3] = 18A variants, precipitation midpoint, second run, Figure S3
[4] = source data Supplementary Fig. 4, GLP-1 variants, 2 stands where Table 3 prints S, in mg/mL

| PEG1/2 ([1]; 18A variants, Figure 3b) | Second Run [1, 3] | SMILES | other results |
| --- | --- | --- | --- |
| 1.783 | 1.487 | CC(=O)N[C@@H](CC(=O)O)C(=O)N[C@@H](Cc1c[nH]c2ccccc12)C(=O)N[C@@H](Cc1ccccc1)C(=O)N[C@@H](CCCCN)C(=O)N[C@@H](C)C(=O)N[C@@H](Cc1ccccc1)C(=O)N[C@@H](Cc1ccc(O)cc1)C(=O)N[C@@H](CC(=O)O)C(=O)N[C@@H](CCCCN)C(=O)N[C@H](C(=O)NC(C)(C)C(=O)N[C@@H](CCC(=O)O)C(=O)N[C@@H](CCCCN)C(=O)N[C@@H](Cc1ccccc1)C(=O)N[C@@H](CCCCN)C(=O)N[C@@H](CCC(=O)O)C(=O)N[C@@H](C)C(=O)N[C@@H](Cc1ccccc1)C(N)=O)C(C)C [Compound 15] (Ac-DWFKAFYDKV[Aib]EKFKEAF-NH2) | – |
| 1.901 | 1.251 | CC(=O)N[C@@H](CC(=O)O)C(=O)N[C@@H](Cc1c[nH]c2ccccc12)C(=O)N[C@@H](Cc1ccccc1)C(=O)N[C@@H](CCCCN)C(=O)N[C@@H](C)C(=O)N[C@@H](Cc1ccccc1)C(=O)N[C@@H](Cc1ccc(O)cc1)C(=O)N[C@@H](CC(=O)O)C(=O)N[C@@H](CCCCN)C(=O)N[C@H](C(=O)N[C@@H](CCCNC(N)=O)C(=O)N[C@@H](CCC(=O)O)C(=O)N[C@@H](CCCCN)C(=O)N[C@@H](Cc1ccccc1)C(=O)N[C@@H](CCCCN)C(=O)N[C@@H](CCC(=O)O)C(=O)N[C@@H](C)C(=O)N[C@@H](Cc1ccccc1)C(N)=O)C(C)C [Compound 16] (Ac-DWFKAFYDKV[Cit]EKFKEAF-NH2) | – |
| – | – | CC(=O)N[C@@H](CC(=O)O)C(=O)N[C@@H](Cc1c[nH]c2ccccc12)C(=O)N[C@@H](CC1CCCCC1)C(=O)N[C@@H](CCCCN)C(=O)N[C@@H](C)C(=O)N[C@@H](Cc1ccccc1)C(=O)N[C@@H](Cc1ccc(O)cc1)C(=O)N[C@@H](CC(=O)O)C(=O)N[C@@H](CCCCN)C(=O)N[C@H](C(=O)N[C@@H](CC1CCCCC1)C(=O)N[C@@H](CCC(=O)O)C(=O)N[C@@H](CCCCN)C(=O)N[C@@H](Cc1ccccc1)C(=O)N[C@@H](CCCCN)C(=O)N[C@@H](CCC(=O)O)C(=O)N[C@@H](C)C(=O)N[C@@H](Cc1ccccc1)C(N)=O)C(C)C [Compound 17, [ntDAC]W[CHA]KAFYDKV[CHA]EKFKEA[ctFAD]] (Ac-DW[Cha]KAFYDKV[Cha]EKFKEAF-NH2) | solubility of 18 A variants (in words) [1]: completely insoluble |
| – | – | CCCC[C@H](NC(=O)[C@H](CCC(=O)O)NC(=O)[C@H](CCCCN)NC(=O)[C@H](Cc1ccccc1)NC(=O)[C@H](CCCCN)NC(=O)[C@H](CCC(=O)O)NC(=O)[C@H](C)NC(=O)[C@@H](NC(=O)[C@H](CCCCN)NC(=O)[C@H](CC(=O)O)NC(=O)[C@H](Cc1ccc(O)cc1)NC(=O)[C@H](Cc1ccccc1)NC(=O)[C@H](CC1CCCCC1)NC(=O)[C@H](CCCCN)NC(=O)[C@H](Cc1ccccc1)NC(=O)[C@H](Cc1c[nH]c2ccccc12)NC(=O)[C@H](CC(=O)O)NC(C)=O)C(C)C)C(=O)N[C@@H](Cc1ccccc1)C(N)=O [Compound 18] (Ac-DWFK[Cha]FYDKVAEKFKE[Nle]F-NH2) | solubility of 18 A variants (in words) [1]: completely insoluble |
| 1.604 | 1.21 | CC(=O)N[C@@H](CC(=O)O)C(=O)N[C@@H](Cc1c[nH]c2ccccc12)C(=O)N[C@@H](Cc1ccccc1)C(=O)NC(C)(C)C(=O)N[C@@H](C)C(=O)N[C@@H](Cc1ccccc1)C(=O)N[C@@H](Cc1ccc(O)cc1)C(=O)N[C@@H](CC(=O)O)C(=O)N[C@@H](CCCCN)C(=O)N[C@H](C(=O)N[C@@H](C)C(=O)N[C@@H](CCC(=O)O)C(=O)N[C@@H](CCCCN)C(=O)N[C@@H](CC1CCCCC1)C(=O)N[C@@H](CCCCN)C(=O)N[C@@H](CCC(=O)O)C(=O)N[C@@H](C)C(=O)N[C@@H](Cc1ccccc1)C(N)=O)C(C)C [Aib, Cha] (Ac-DWF[Aib]AFYDKVAEK[Cha]KEAF-NH2) | – |
| 2.52 | 1.409 | CCCC[C@H](NC(=O)[C@H](CCCCN)NC(=O)[C@H](CCC(=O)O)NC(=O)[C@H](C)NC(=O)[C@@H](NC(=O)[C@H](CCCCN)NC(=O)[C@H](CC(=O)O)NC(=O)[C@H](Cc1ccc(O)cc1)NC(=O)[C@H](Cc1ccccc1)NC(=O)[C@H](C)NC(=O)[C@H](CCCCN)NC(=O)[C@H](CCCCNC(C)=O)NC(=O)[C@H](Cc1c[nH]c2ccccc12)NC(=O)[C@H](CC(=O)O)NC(C)=O)C(C)C)C(=O)N[C@@H](CCCCN)C(=O)N[C@@H](CCC(=O)O)C(=O)N[C@@H](C)C(=O)N[C@@H](Cc1ccccc1)C(N)=O [Nac, Nle] (Ac-DWK(Ac)KAFYDKVAEK[Nle]KEAF-NH2) | – |
| 1.287 | 0.527 | CC(=O)NCCCC[C@H](NC(=O)[C@@H](NC(=O)[C@H](CCCCN)NC(=O)[C@H](CC(=O)O)NC(=O)[C@H](Cc1ccc(O)cc1)NC(=O)[C@H](Cc1ccccc1)NC(=O)[C@H](C)NC(=O)[C@H](CCCCN)NC(=O)[C@H](Cc1ccccc1)NC(=O)[C@H](Cc1c[nH]c2ccccc12)NC(=O)[C@H](CC(=O)O)NC(C)=O)C(C)C)C(=O)N[C@@H](CCC(=O)O)C(=O)N[C@@H](CCCCN)C(=O)N[C@@H](Cc1ccccc1)C(=O)N[C@@H](CCCCN)C(=O)N[C@@H](CCC(=O)O)C(=O)N[C@@H](C)C(=O)N[C@@H](Cc1ccccc1)C(N)=O [Compound 14] (Ac-DWFKAFYDKVK(Ac)EKFKEAF-NH2) | – |
| – | – | CC(=O)N[C@@H](CC(=O)O)C(=O)N[C@@H](Cc1c[nH]c2ccccc12)C(=O)N[C@@H](Cc1ccccc1)C(=O)N[C@@H](CCCCN)C(=O)N[C@@H](C)C(=O)N[C@@H](Cc1ccccc1)C(=O)N[C@@H](Cc1ccc(O)cc1)C(=O)N[C@@H](CC(=O)O)C(=O)N[C@@H](CCCCN)C(=O)N[C@H](C(=O)N[C@@H](C)C(=O)N[C@@H](CCC(=O)O)C(=O)N[C@@H](CCCCN)C(=O)N[C@@H](Cc1ccccc1)C(=O)N[C@@H](CCCCN)C(=O)N[C@@H](CCC(=O)O)C(=O)N[C@@H](C)C(=O)N[C@@H](Cc1ccccc1)C(N)=O)C(C)C [Compound 11, reference compound] (Ac-DWFKAFYDKVAEKFKEAF-NH2) | PEG1/2 [1]: 1.626; Second Run [1]: 1.058 |
| 0 | 0 | CCCC[C@H](NC(=O)[C@H](CCC(=O)O)NC(=O)[C@H](CCCCN)NC(=O)[C@H](Cc1ccccc1)NC(=O)[C@H](CCCCN)NC(=O)[C@H](CCC(=O)O)NC(=O)[C@H](C)NC(=O)[C@@H](NC(=O)[C@H](CCCCN)NC(=O)[C@H](CC(=O)O)NC(=O)[C@H](Cc1ccc(O)cc1)NC(=O)[C@H](Cc1ccccc1)NC(=O)[C@H](CC1CCCCC1)NC(=O)[C@H](CCCCN)NC(=O)[C@H](Cc1ccccc1)NC(=O)[C@H](Cc1c[nH]c2ccccc12)NC(=O)[C@H](CC(=O)O)NC(C)=O)C(C)C)C(=O)N[C@@H](Cc1ccccc1)C(N)=O [Cha, Nle] (Ac-DWFK[Cha]FYDKVAEKFKE[Nle]F-NH2) | – |
| 0 | 0 | CC(=O)N[C@@H](CC(=O)O)C(=O)N[C@@H](Cc1c[nH]c2ccccc12)C(=O)N[C@@H](CC1CCCCC1)C(=O)N[C@@H](CCCCN)C(=O)N[C@@H](C)C(=O)N[C@@H](Cc1ccccc1)C(=O)N[C@@H](Cc1ccc(O)cc1)C(=O)N[C@@H](CC(=O)O)C(=O)N[C@@H](CCCCN)C(=O)N[C@H](C(=O)N[C@@H](CC1CCCCC1)C(=O)N[C@@H](CCC(=O)O)C(=O)N[C@@H](CCCCN)C(=O)N[C@@H](Cc1ccccc1)C(=O)N[C@@H](CCCCN)C(=O)N[C@@H](CCC(=O)O)C(=O)N[C@@H](C)C(=O)N[C@@H](Cc1ccccc1)C(N)=O)C(C)C [Cha, Cha] (Ac-DW[Cha]KAFYDKV[Cha]EKFKEAF-NH2) | – |
| – | – | CC[C@H](C)[C@H](NC(=O)[C@H](Cc1ccccc1)NC(=O)[C@H](CCC(=O)O)NC(=O)[C@H](CCCCN)NC(=O)[C@H](C)NC(=O)[C@H](CCCNC(N)=O)NC(=O)[C@H](CCC(N)=O)NC(=O)CNC(=O)[C@H](CCC(=O)O)NC(=O)[C@H](CC(C)C)NC(=O)[C@H](Cc1ccc(O)cc1)NC(=O)[C@H](CO)NC(=O)[C@H](CO)NC(=O)[C@@H](NC(=O)[C@H](CC(=O)O)NC(=O)[C@H](CO)NC(=O)[C@@H](NC(=O)[C@H](Cc1ccccc1)NC(=O)[C@@H](NC(=O)CNC(=O)[C@H](CCC(=O)O)NC(=O)[C@H](C)NC(=O)[C@@H](N)Cc1c[nH]cn1)[C@@H](C)O)[C@@H](C)O)C(C)C)C(=O)N[C@@H](C)C(=O)N[C@@H](Cc1c[nH]c2ccccc12)C(=O)N[C@@H](CC(C)C)C(=O)N[C@H](C(=O)N[C@@H](CCCCN)C(=O)NCC(=O)N[C@@H](CCCNC(=N)N)C(N)=O)C(C)C [Compound 6] (H-HAEGTFTSDVSSYLEGQ[Cit]AKEFIAWLVKGR-NH2; N-terminus assumed) | solubility ([2]; run 1, read-out: Run 1 solubility (peptide concentration in supernatant)): > 2000 µg/mL; solubility ([2]; run 2, read-out: Run 2 solubility (peptide concentration in supernatant)): > 2000 µg/mL; Ultracentrifugation ([2]; GLP1 variants, Figure 3c, in mg/mL): 2; First Run [2, 4]: 2; Second Run [2, 4]: 2 |
